Test results taken from patent US20030130169A1, “Methods of treating drug-resistant bacterial infections” (priority 2001, published 2003).

What was measured:
[1] = tested on: RepA-LacZ (SLI-SLIII interaction of RepA mRNA), plasmid pMU1550; test: RepA-LacZ reporter gene assay; type: cell-based; settings: E. coli JP3923 harboring pMU1550, various concentrations, OD600 ~0.6
Description: Small molecules were tested for their ability to imitate the function of RNA I by binding to the RepA mRNA and disrupting the Stem Loop I-Stem Loop III (SLI-SLIII) loop-loop interaction, thus mimicking plasmid incompatibility. Aminoglycosides and their derivatives were selected for testing because of their ability to tightly bind RNA from a variety of sources, particularly regions of distorted RNA secondary structure, such as RNA loops or bulges.
To assess their ability to disrupt the SLI-SLIII interaction in vivo, small molecules were assessed using a RepA-LacZ reporter gene assay. To conduct the assay, the gene encoding β-galactosidase was fused to the RepA gene, incorporated into commercially available plasmid pMU1550. E. coli JP3923 harboring plasmid pMU1550 was grown in minimal media (MM)/Tm([…]) in the presence of various concentrations of the small molecules under evaluation. After reaching the appropriate optical density (˜OD600=0.6), Miller units of b-galactosidase were quantitated as per the standard protocol (see Miller, J. H, Experiments in Molecular Genetics, 1972, p352-355, Cold Spring Harbor Laboratory, Cold Spring Harbor, N.Y.). Any perturbation causing lower RepA production leads to a lowering of the β-galactosidase units upon quantitation A positive control utilizing a plasmid (pMU662) that overexpresses RNAII (containing the SLI-SLIII stretch) gave the expected high b-galactosidase signal. Each experiment was performed on at least three separate occasions.
In a second control, erythromycin A, a general translation inhibitor, was tested using the reporter gene assay.
These experiments gave the expected results.

[2] = tested on: plasmids differing in copy numbers, size and nature of replication; settings: cited from earlier work
[3] = tested on: IncB plasmid pMU2403 encoding β-lactamase; test: Assessment of plasmid elimination (master/replica plating); type: cell-based, E. coli strain JP4821; settings: 25 μg/mL apramycin
Description: The anti-plasmid effect of apramycin, paromomycin I and kanamycin B was assessed. In general, plasmid-containing E. coli resistant to ampicillin were cultured using growth media containing subinhibitory (sublethal) amounts of each of these compounds. The bacteria were allowed to reproduce for a defined number of generations, after which the bacteria were plated out onto agar plates containing the tested small molecules. Replicas were then made onto plates containing the tested small molecules and the antibiotic, ampicillin. Colonies that appeared on the master plate, but not the replicas had been rendered sensitive to ampicillin
In particular, E. coli strain JP4821 containing the commercially available IncB plasmid pMU2403, which encodes for β-lactamase, was grown in MM in the presence of 25 μg/mL apramycin for a defined number of generations. Typically, samples of the bacteria were plated out onto LB/Apra^25 plates after 10-12 generations, and replica plates were then made onto LB/Apra^25/Amp^100 plates. Percentage of plasmid lost was calculated by counting the number of colonies successfully replicated and dividing by the total number of colonies on the master plate; the entire plasmid loss assay was performed on two separate occasions. On average, greater than 200 master plate colonies were used for each of these evaluations. Evaluations of paromomycin I and kanamycin B were performed in an analogous fashion, with paromomycin I at 15 mg/mL, and kanamycin B at 10 mg/mL.
To confirm that antibiotic sensitivity was due to plasmid loss, plasmid preparations were performed to isolate plasmid from the non-replicating colonies on the master plate, and from control colonies. No plasmids were isolated from the non-replicating colonies, while plasmid was successfully isolated from the control colonies that did replicate.

[4] = biological target: SLI-SLIII loop-loop complex; test: In vitro SLI-SLIII loop-loop disruption assay (displacement of fluorescein-labeled SLIII from bead-bound SLI); type: binding; settings: biotinylated SLI on streptavidin agarose bead, fluorescein-labeled SLIII displaced; read-out: Kd for disrupting the SLI-SLIII interaction
Description: To further investigate the mechanism by which apramycin causes plasmid elimination, the SLI-SLIII loop-loop interaction was reconstituted in vitro. SLI was biotinylated and bound to a streptavidin coated agarose bead. Fluorescein-labeled SLIII was added to form the loop-loop complex. This complex was then incubated with varous concentrations of apramycin and the amount of SLIII displaced by apramycin was assessed by quantitation of the fluorescence in solution. These experiments indicate that apramycin is disrupting the SLI-SLIII interaction with a Kd of 1 μM.

SLIII = test: Direct binding to fluorescein-labeled RNA (fluorescence titration); settings: various apramycin concentrations
Description: (§1) The direct binding of apramycin to SLI and SLIII was then assessed in vitro using fluorescently-labeled RNAs.
(§2) For these experiments, RNA oligonucleotides were obtained from Dharmacon Research (Lafayette, Colo.), and were deprotected according to the manufacturer's protocol. The sequence of FI-SLI is FI.C.G.CCA.UAA.GCG.ACA.GCU.UGU.GGC. The sequence of FI-SLIII is FI.UAU.UUU.UCC.UCG.AAC.UUG.GCG.GAA.CGC.AGA.AAA.AUA. All fluorescence measurements were performed on an ISS PC1 spectrofluorometer with slitwidths and lamp current optimized for sufficient signal counts at the given RNA-fluorescein concentration. Deprotected RNA oligonucleotides were made up to 1 mM in 50 mM Tris-HCl, pH 7.3, and folded by heating to 90° C. for 3 min, then slowly cooling to rt. To assess the binding of apramycin to the fluorescently-labeled RNAs, […] of the folded RNA was transferred to a 4×10×48 mm fluorescence cuvette (Starna Cells) and allowed to equilibrate to 37° C. in the spectrofluorometer's sample chamber for 15 minutes. Apramycin was added in […] portions from a stock solution, and a minimum of 5 minutes was allotted for equilibration. Three fluorescence spectra were acquired at each apramycin concentration. The spectra were taken with a 490 nm excitation wavelength and emission intensity was measured from 510-540 nm at an interval of one nanometer. At each point along the spectrum, an average of 3 data points was taken to give an averaged intensity at that integral wavelength. In processing the spectra, the point at 523 nm was chosen as a representative wavelength to monitor change in intensity over a range of apramycin concentrations. The 523 nm data points from each of the three averaged spectra were averaged at each apramycin concentration to give a composite average of nine measurements at 523 nm at each apramycin concentration. All intensity measurements are reported uncorrected for dilutions, as volume change over the course of the experiment is minimal.

SLI = test: as above
Description: as §1, §2

CC[C@H]1OC(=O)[C@H](C)[C@@H](O[C@H]2C[C@@](C)(OC)[C@@H](O)[C@H](C)O2)[C@H](C)[C@@H](O[C@@H]2O[C@H](C)C[C@H](N(C)C)[C@H]2O)[C@](C)(O)C[C@@H](C)C(=O)[C@H](C)[C@@H](O)[C@]1(C)O [Erythromycin A, erythromycin A]
reporter gene signal (Miller units of β-galactosidase) [1]: no effect

N[C@@H]1[C@H]2CN(c3nc4c(cc3F)c(=O)c(C(=O)O)cn4-c3ccc(F)cc3F)C[C@@H]12 [Trovafloxacin]
plasmid curing effect [2]: plasmid curing

CN[C@@H]1[C@@H](O[C@H]2O[C@H](CO)[C@@H](N)[C@H](O)[C@H]2O)OC2C[C@@H](N)[C@@H](O[C@H]3[C@H](O)[C@@H](O)[C@H](N)C[C@@H]3N)OC2[C@@H]1O (stereo partly drawn) [apramycin]
reporter gene signal (Miller units of β-galactosidase) [1]: dose dependent decrease | plasmid elimination ([3]; after 220 generations): virtually complete elimination | plasmid elimination ([3]; overall conclusion): virtually complete elimination of plasmid | sensitization of bacteria to ampicillin ([3]; replica plates LB/Apra25/Amp100): sensitizes the bacteria to ampicillin | Kd [4]: 1000 nM | change in fluorescence of labeled SLIII (SLIII): no significant change in fluorescence | Kd (SLI; 50 mM Tris-HCl pH 7.3, 37° C., read-out: Kd of apramycin-SLI interaction): 200 nM | change in fluorescent signal of labeled SLI (SLI; various apramycin concentrations): significant decrease

NC[C@H]1O[C@H](O[C@H]2[C@H](O)[C@@H](O[C@H]3O[C@H](CO)[C@@H](O)[C@H](N)[C@H]3O)[C@H](N)C[C@@H]2N)[C@H](N)[C@@H](O)[C@@H]1O [kanamycin B]
reporter gene signal (Miller units of β-galactosidase) [1]: dose dependent decrease

NC[C@@H]1O[C@H](O[C@H]2[C@@H](O)[C@H](O[C@@H]3[C@@H](O)[C@H](N)C[C@H](N)[C@H]3O[C@H]3O[C@H](CO)[C@@H](O)[C@H](O)[C@H]3N)O[C@@H]2CO)[C@H](N)[C@@H](O)[C@@H]1O [paromomycin I]
reporter gene signal (Miller units of β-galactosidase) [1]: dose dependent decrease
